Data reported in ChEMBL document CHEMBL1955771, “VX-322: a novel dual receptor tyrosine kinase inhibitor for the treatment of acute myelogenous leukemia” (J Med Chem, 2012).

Organism: Mus musculus
Assay: Toxicity in BALB/c mouse assessed as change in body weight after 100 days
Format: organism-based
Settings: in vivo, 2400 h

With Nc1nc(Nc2ccc([C@H]3CC[C@H](N4CCOCC4)CC3)cc2)nn1-c1ccccn1 the Activity was “Non-toxic”.
